Results from patent US7427617B2, “Morpoline-bridged indazole derivatives” (Bayer Healthcare AG, priority 2002, dated 2008).

Tested on: primary cortical neurons
Test: Increase of cGMP in primary cortical neurons
Type: cell-based
Conditions: 0.1 μM test substance; rat primary cortical neurons; IBMX 100 μM; 20 min at 37° C.; cGMP by EIA
Procedure: Increase of cGMP in Primary Cortical Neurons
Rat embryos (embryonic day 17-19) are decapitated, and the cerebrum is removed and incubated with 5 ml of papain solution and 250 μl of DNAse (papain kit from Cell-System) at 37° C. for 30 min, homogenized using a Pasteur pipette and centrifuged at 1200 rpm for 5 min. The supernatant is removed, the cell pellet resuspended (in 2.7 ml of EBSS [Earl's balanced salt solution], 300 μl of ovomucoid/albumin (conc.) solution, 150 μl of DNAse; papain kit from Cell-System), layered over 5 ml of ovomucoid/albumin solution and centrifuged at 700 rpm for 6 min. The supernatant is removed, the cells are resuspended in cultivation medium (Gibco neurobasal medium, B27 Supplement 50×1 ml/100 ml, 2 mM L-glutamine), counted (approx. 150 000 cells/well) and plated out on poly-D-lysine-coated 96-well plates (Costar) with 200 μl/well. After 6-7 days at 37° C. (5% CO2), the neurons are freed of culture medium and washed once with assay buffer (154 mM NaCl, 5.6 mM KCl, 2.3 mM CaCl22H2O, 1 mM MgCl2, 5.6 mM glucose, 8.6 mM HEPES (4-(2-hydroxyethyl)piperazine-1-ethanesulfonic acid), pH=7.4). […] After incubation at 37° C. for 20 min, the assay buffer is replaced by 200 μl/well of lysis buffer (cGMP EIA RPN 226 from Amersham Pharmacia Biotech), and the cGMP content of the lystates is determined using an EIA assay kit.

Nc1nc(-c2nn(Cc3ccccc3F)c3ccccc23)ncc1N1C2CCCC1COC2 [Example 1, 2-[1-(2-Fluorobenzyl)-1H-indazol-3-yl]-5-(3-oxa-9-azabicyclo[3.3.1]non-9-yl)-4pyrimidinylamine]
increase in cGMP: statistically significant increase in cGMP
